These results are taken from US20120121745A1, “AGENTS FOR THE CONTROL OF […]” (MARRONE BIO INNOVATIONS, INC., priority 2010, published 2012).

The subject of the data set is quagga mussels. As to the kind of experiment: Molluscicidal effects of compounds isolated from Pseudomonas broth (live mussel jar-test bioassay, procedures of US 20100266717). The settings on record: Conc 16 μg/ml. Type of data set: in vivo. The procedure:
The culture broth derived from the 10-L fermentation P. fluorescens in FM2-growth media is first centrifuge to separate the cells pellet and supernatant. The supernatant and the cell pellet were extracted separately using Amberlite XAD-7 resin (Asolkar et al., 2006) by shaking the cell suspension/supernatant with resin at 225 rpm for two hours at room temperature. The resin and cell mass are collected by filtration through cheesecloth and washed with DI water to remove salts. The resin, cell mass, and cheesecloth are then soaked for 2 h in acetone/methanol (50/50) after which the acetone/methanol is filtered and dried under vacuum using rotary evaporator to give two separate crude extract.(one for supernatant and other for cell pellets). The crude extracts were then fractionated separately by using reversed-phase C18 vacuum liquid chromatography (H2O/CH3OH; gradient […] to 0:100%) to give 7 fractions. These fractions are then concentrated to dryness using rotary evaporator and the resulting dry residues are screened for biological activity using both a live mussel jar-test bioassay with quagga mussels as well as a cell-based assay with a freshwater snail embryo cell line (Biomphalaria glabrata). The active fractions are then subjected to reversed phase HPLC (Spectra System P4000 (Thermo Scientific) to give pure compounds, which are then screened in above mentioned bioassays to locate/identify the active compounds. To confirm the identity of the compound, additional spectroscopic data such as LC/MS and NMR is recorded.
The potency of compounds isolated from Pseudomonas broth is tested using procedures described in the US Patent Application Pub. No. 20100266717.

Regarding `CCCCCC/C=C/CCCCCCCC(=O)O` [9-hexadecenoic acid], the “% mortality 24 hr” value came to 20 ± 14.1%, the “% mortality 48 hr” value worked out at 25.5 ± 7.1%, the “% mortality 72 hr” value was found to be 30 ± 14.1% and the “% mortality 96 hr” value worked out at 30 ± 14.1%.
Take `CCCCCC[C@@H](O)C/C=C\CCCCCCCC(=O)O` [Ricinoleic acid, ricinoleic acid]: the “% mortality 24 hr” value came to 20 ± 0%, the “% mortality 48 hr” value worked out at 20 ± 0%, the “% mortality 72 hr” value was 20 ± 0% and the “% mortality 96 hr” value came out at 20 ± 0%.
